Experimental data from the kinase profiling compilation of Christmann-Franck et al. (2016).

Columns and labels:
Assay in all cases: radiometric filter-binding kinase assay, Kinase HotSpot
Conditions in all cases: compound 0.5 µM; ATP 10 µM
BTK (human) = BTK (human) (UniProt Q06187)
MAP3K3 (human) = MAP3K3 (human) (UniProt Q99759)
DAPK1 (human) = DAPK1 (human) (UniProt P53355)
PTK2B (human) = PTK2B (human) (UniProt Q14289)
EPHA4 (human) = EPHA4 (human) (UniProt P54764)
CDK2 CCNA2 (human) = CDK2 CCNA2 (human) (UniProt P24941+P20248)
PRKD3 (human) = PRKD3 (human) (UniProt O94806)
SRPK2 (human) = SRPK2 (human) (UniProt P78362)
ACVR1B (human) = ACVR1B (human) (UniProt P36896)
CAMK1D (human) = CAMK1D (human) (UniProt Q8IU85)
CSK (human) = CSK (human) (UniProt P41240)
TAOK3 (human) = TAOK3 (human) (UniProt Q9H2K8)
AURKC (human) = AURKC (human) (UniProt Q9UQB9)
DYRK3 (human) = DYRK3 (human) (UniProt O43781)
CDK6 CCND1 (human) = CDK6 CCND1 (human) (UniProt Q00534+P24385)
PBK (human) = PBK (human) (UniProt Q96KB5)
MAP3K14 (human) = MAP3K14 (human) (UniProt Q99558)
MAP3K5 (human) = MAP3K5 (human) (UniProt Q99683)
MAP4K2 (human) = MAP4K2 (human) (UniProt Q12851)
LCK (human) = LCK (human) (UniProt P06239)
PRKACG (human) = PRKACG (human) (UniProt P22612)
SLK (human) = SLK (human) (UniProt Q9H2G2)
[1] = target: TYK2 JH1 catalytic (human) (UniProt P29597)
NEK11 (human) = NEK11 (human) (UniProt Q8NG66)
INSR (human) = INSR (human) (UniProt P06213)
STK10 (human) = STK10 (human) (UniProt O94804)
PRKD1 (human) = PRKD1 (human) (UniProt Q15139)
PDGFRB (human) = PDGFRB (human) (UniProt P09619)
ROCK1 (human) = ROCK1 (human) (UniProt Q13464)
FER (human) = FER (human) (UniProt P16591)
PAK6 (human) = PAK6 (human) (UniProt Q9NQU5)
CAMK2D (human) = CAMK2D (human) (UniProt Q13557)
STK38 (human) = STK38 (human) (UniProt Q15208)
AKT3 (human) = AKT3 (human) (UniProt Q9Y243)
MAP3K8 (human) = MAP3K8 (human) (UniProt P41279)
CAMK2A (human) = CAMK2A (human) (UniProt Q9UQM7)
STK33 (human) = STK33 (human) (UniProt Q9BYT3)
CSNK2A1 (human) = CSNK2A1 (human) (UniProt P68400)
MAPK11 (human) = MAPK11 (human) (UniProt Q15759)
AXL (human) = AXL (human) (UniProt P30530)
RPS6KA3 KD1 KD2 (human) = RPS6KA3 KD1 KD2 (human) (UniProt P51812)
MAPK8 (human) = MAPK8 (human) (UniProt P45983)

Chain of CSK (human) (P41240 whole entry, looked up): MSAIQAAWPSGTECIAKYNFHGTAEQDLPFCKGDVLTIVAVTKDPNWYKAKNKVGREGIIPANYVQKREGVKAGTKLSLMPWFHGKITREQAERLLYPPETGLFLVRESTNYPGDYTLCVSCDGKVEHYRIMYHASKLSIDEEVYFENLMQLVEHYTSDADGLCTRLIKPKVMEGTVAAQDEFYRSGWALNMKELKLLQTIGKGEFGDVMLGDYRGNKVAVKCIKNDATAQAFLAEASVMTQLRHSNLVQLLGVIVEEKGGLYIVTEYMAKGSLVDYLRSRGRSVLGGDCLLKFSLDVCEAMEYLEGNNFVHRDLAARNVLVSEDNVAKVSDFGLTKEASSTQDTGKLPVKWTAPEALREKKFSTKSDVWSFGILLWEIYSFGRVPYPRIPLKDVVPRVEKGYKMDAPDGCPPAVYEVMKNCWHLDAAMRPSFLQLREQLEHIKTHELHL
Chain of ROCK1 (human) (Q13464 whole entry, looked up): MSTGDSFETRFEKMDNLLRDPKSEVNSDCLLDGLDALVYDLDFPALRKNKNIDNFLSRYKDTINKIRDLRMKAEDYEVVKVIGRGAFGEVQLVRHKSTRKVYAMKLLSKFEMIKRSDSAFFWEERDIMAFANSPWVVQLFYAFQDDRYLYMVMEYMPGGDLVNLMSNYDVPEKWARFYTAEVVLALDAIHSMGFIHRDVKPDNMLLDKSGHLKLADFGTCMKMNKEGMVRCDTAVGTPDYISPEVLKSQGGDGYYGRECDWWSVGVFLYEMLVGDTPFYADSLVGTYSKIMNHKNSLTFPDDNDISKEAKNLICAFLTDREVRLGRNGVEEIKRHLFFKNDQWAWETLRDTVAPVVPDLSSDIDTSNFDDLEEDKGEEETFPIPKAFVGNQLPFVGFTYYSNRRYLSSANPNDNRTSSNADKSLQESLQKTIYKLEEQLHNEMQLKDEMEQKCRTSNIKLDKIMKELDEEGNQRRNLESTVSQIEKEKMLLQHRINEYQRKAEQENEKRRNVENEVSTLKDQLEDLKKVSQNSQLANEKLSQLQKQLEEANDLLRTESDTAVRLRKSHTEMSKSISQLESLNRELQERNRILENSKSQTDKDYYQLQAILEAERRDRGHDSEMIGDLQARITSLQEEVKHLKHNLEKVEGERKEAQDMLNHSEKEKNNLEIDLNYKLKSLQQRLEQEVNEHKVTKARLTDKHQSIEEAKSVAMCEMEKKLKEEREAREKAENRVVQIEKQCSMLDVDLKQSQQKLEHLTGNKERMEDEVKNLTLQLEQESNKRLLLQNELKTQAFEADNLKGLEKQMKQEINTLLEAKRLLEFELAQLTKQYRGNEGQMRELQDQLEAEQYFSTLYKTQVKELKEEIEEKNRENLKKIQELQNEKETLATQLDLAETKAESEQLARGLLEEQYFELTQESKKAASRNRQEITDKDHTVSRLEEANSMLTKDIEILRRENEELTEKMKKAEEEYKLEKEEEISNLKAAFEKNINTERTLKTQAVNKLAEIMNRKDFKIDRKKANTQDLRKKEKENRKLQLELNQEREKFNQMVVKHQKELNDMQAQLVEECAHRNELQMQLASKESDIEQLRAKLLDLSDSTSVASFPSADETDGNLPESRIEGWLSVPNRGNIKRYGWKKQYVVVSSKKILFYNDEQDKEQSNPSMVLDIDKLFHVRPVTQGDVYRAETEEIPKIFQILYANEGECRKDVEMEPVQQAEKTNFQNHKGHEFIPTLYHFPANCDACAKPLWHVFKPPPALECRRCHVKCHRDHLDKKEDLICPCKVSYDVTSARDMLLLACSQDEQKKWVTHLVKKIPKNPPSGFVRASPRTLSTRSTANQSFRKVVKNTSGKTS
Chain of MAP3K3 (human) (Q99759 whole entry, looked up): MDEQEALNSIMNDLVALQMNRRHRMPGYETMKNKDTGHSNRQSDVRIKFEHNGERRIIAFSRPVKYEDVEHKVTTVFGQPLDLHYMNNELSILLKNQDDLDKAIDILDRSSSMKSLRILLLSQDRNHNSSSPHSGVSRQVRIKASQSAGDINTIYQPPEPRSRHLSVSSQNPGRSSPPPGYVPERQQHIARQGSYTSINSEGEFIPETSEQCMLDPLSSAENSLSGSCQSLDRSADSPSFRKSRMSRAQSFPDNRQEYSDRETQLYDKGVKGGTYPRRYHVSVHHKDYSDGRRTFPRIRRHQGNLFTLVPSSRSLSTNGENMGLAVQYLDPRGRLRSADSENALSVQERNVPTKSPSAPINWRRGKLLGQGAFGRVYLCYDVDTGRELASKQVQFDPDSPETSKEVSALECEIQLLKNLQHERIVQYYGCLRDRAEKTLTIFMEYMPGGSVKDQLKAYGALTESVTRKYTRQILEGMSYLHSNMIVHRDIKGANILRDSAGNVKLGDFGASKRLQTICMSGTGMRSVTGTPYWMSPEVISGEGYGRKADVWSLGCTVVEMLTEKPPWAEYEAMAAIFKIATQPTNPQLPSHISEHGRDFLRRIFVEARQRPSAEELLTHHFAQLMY
Chain of SRPK2 (human) (P78362 whole entry, looked up): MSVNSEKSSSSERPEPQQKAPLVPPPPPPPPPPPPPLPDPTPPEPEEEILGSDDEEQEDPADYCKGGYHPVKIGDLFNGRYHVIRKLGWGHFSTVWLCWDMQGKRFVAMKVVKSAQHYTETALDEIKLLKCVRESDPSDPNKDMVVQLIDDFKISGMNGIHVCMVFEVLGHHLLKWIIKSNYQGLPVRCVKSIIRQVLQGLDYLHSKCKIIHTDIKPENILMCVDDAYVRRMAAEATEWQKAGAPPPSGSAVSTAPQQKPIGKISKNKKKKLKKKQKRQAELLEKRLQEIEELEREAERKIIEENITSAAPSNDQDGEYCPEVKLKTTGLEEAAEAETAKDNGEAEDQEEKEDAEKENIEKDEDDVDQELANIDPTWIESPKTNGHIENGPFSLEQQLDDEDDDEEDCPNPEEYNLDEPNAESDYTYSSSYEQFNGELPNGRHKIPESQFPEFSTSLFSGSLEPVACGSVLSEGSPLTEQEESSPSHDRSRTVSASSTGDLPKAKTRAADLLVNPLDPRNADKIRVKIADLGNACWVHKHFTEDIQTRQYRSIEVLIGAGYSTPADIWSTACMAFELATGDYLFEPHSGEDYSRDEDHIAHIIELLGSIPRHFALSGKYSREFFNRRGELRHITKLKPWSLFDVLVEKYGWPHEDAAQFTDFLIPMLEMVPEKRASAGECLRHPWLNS
Chain of MAP4K2 (human) (Q12851 whole entry, looked up): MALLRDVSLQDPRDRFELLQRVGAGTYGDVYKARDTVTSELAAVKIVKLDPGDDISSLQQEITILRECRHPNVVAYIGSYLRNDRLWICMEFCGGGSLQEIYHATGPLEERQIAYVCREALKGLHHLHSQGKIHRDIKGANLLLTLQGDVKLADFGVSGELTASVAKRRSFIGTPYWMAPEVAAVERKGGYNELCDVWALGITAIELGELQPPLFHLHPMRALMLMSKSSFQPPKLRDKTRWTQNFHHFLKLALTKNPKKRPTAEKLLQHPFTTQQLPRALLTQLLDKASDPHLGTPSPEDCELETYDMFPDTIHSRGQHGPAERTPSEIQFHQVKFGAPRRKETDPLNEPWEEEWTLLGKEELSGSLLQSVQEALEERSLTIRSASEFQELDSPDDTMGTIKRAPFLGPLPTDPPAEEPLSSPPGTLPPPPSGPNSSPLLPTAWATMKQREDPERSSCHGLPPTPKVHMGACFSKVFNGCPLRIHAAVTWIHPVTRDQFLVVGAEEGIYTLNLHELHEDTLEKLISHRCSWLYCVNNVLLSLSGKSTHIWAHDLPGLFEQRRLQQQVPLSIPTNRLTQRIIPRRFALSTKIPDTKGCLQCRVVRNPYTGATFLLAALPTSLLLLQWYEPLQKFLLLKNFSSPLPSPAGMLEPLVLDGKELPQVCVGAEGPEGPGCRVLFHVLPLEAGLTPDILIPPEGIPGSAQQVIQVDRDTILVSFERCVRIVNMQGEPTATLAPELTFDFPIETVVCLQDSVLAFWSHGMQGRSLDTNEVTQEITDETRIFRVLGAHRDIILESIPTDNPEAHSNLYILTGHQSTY
Chain of PRKD1 (human) (Q15139 whole entry, looked up): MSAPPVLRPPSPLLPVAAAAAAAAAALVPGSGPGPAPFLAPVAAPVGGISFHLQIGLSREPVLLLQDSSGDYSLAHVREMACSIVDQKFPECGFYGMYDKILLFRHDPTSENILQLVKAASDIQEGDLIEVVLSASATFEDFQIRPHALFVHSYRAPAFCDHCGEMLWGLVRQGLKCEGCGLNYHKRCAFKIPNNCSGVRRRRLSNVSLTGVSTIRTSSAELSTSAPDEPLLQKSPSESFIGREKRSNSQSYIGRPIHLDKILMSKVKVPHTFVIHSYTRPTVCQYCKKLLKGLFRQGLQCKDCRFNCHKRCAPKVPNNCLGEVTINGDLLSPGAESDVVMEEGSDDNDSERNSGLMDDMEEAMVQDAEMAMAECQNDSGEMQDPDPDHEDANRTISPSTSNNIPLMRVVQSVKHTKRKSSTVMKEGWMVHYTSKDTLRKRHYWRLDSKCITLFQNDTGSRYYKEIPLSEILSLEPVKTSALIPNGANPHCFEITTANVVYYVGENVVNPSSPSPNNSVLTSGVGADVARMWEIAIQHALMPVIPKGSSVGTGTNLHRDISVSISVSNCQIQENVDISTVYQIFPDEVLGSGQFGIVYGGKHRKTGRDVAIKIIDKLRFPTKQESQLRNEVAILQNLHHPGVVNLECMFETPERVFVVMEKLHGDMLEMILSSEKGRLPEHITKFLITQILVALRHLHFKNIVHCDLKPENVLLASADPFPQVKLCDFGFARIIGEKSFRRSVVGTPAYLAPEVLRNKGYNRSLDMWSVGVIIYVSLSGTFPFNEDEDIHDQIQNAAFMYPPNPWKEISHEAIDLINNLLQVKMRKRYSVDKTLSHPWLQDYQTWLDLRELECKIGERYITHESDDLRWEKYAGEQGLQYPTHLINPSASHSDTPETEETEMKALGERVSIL

Work on `c1ccc(-c2n[nH]cc2-c2ccnc3ccccc23)nc1` yielded a residual activity (BTK (human)) of 104%, a residual activity (MAP3K3 (human)) of 79.4% and a residual activity (DAPK1 (human)) of 111%. It also gave a residual activity (PTK2B (human)) of 96.1%, a residual activity (EPHA4 (human)) of 98% and a residual activity (CDK2 CCNA2 (human)) of 98.7%. For the same compound, the residual activity (PRKD3 (human)) was 56.1%, the residual activity (SRPK2 (human)) was 97.2% and the residual activity (ACVR1B (human)) was 43.2%. It also gave a residual activity (CAMK1D (human)) of 100%, a residual activity (CSK (human)) of 102% and a residual activity (TAOK3 (human)) of 92.8%. For the same compound, the residual activity (AURKC (human)) was 100%, the residual activity (DYRK3 (human)) was 104% and the residual activity (CDK6 CCND1 (human)) was 91.1%. The residual activity (PBK (human)) was 91.9%, the residual activity (MAP3K14 (human)) was 116% and the residual activity (MAP3K5 (human)) was 105%. It also gave a residual activity (MAP4K2 (human)) of 103%, a residual activity (LCK (human)) of 91.7% and a residual activity (PRKACG (human)) of 92.9%. The residual activity (SLK (human)) was 104%, the residual activity [1] was 101% and the residual activity (NEK11 (human)) was 91.8%. It also gave a residual activity (INSR (human)) of 86.7%, a residual activity (STK10 (human)) of 90.1% and a residual activity (PRKD1 (human)) of 63%. It also gave a residual activity (PDGFRB (human)) of 106%, a residual activity (ROCK1 (human)) of 103% and a residual activity (FER (human)) of 86%. For the same compound, the residual activity (PAK6 (human)) was 106%, the residual activity (CAMK2D (human)) was 101% and the residual activity (STK38 (human)) was 111%. For the same compound, the residual activity (AKT3 (human)) was 92.6%, the residual activity (MAP3K8 (human)) was 91.1% and the residual activity (CAMK2A (human)) was 102%. The residual activity (STK33 (human)) was 92.9%, the residual activity (CSNK2A1 (human)) was 96.3% and the residual activity (MAPK11 (human)) was 106%. For the same compound, the residual activity (AXL (human)) was 101% and the residual activity (RPS6KA3 KD1 KD2 (human)) was 101%.
Work on `CC(C)N(CCC(=O)c1ccc2ccccc2c1)Cc1ccccc1` yielded a residual activity (BTK (human)) of 87.5%, a residual activity (MAP3K3 (human)) of 102% and a residual activity (DAPK1 (human)) of 97.9%. For the same compound, the residual activity (PTK2B (human)) was 106%, the residual activity (EPHA4 (human)) was 94.5% and the residual activity (CDK2 CCNA2 (human)) was 109%. The residual activity (PRKD3 (human)) was 98.1%, the residual activity (SRPK2 (human)) was 99.1% and the residual activity (ACVR1B (human)) was 99.5%. For the same compound, the residual activity (CSK (human)) was 88.5%, the residual activity (TAOK3 (human)) was 87.8% and the residual activity (AURKC (human)) was 97.5%. The residual activity (DYRK3 (human)) was 107%, the residual activity (CDK6 CCND1 (human)) was 96.8% and the residual activity (PBK (human)) was 108%. It also gave a residual activity (MAP3K14 (human)) of 117%, a residual activity (MAP3K5 (human)) of 103% and a residual activity (MAP4K2 (human)) of 98.3%. For the same compound, the residual activity (LCK (human)) was 98.9%, the residual activity (PRKACG (human)) was 107% and the residual activity (SLK (human)) was 101%. For the same compound, the residual activity [1] was 103%, the residual activity (NEK11 (human)) was 105% and the residual activity (INSR (human)) was 107%. The residual activity (STK10 (human)) was 93.6%, the residual activity (PRKD1 (human)) was 98% and the residual activity (ROCK1 (human)) was 98.6%. For the same compound, the residual activity (FER (human)) was 105%, the residual activity (PAK6 (human)) was 116% and the residual activity (CAMK2D (human)) was 90%. For the same compound, the residual activity (MAPK8 (human)) was 88%, the residual activity (STK38 (human)) was 100% and the residual activity (AKT3 (human)) was 95.8%. It also gave a residual activity (MAP3K8 (human)) of 94.6%, a residual activity (CAMK2A (human)) of 106% and a residual activity (STK33 (human)) of 104%. For the same compound, the residual activity (CSNK2A1 (human)) was 98.1%, the residual activity (MAPK11 (human)) was 108% and the residual activity (AXL (human)) was 108%. It also gave a residual activity (RPS6KA3 KD1 KD2 (human)) of 95.1%.
`Cc1ccc(Nc2nccc(N(C)c3ccc4c(C)n(C)nc4c3)n2)cc1S(N)(=O)=O` gave a residual activity (BTK (human)) of 78.8%, a residual activity (MAP3K3 (human)) of 112% and a residual activity (DAPK1 (human)) of 105%. The residual activity (PTK2B (human)) was 92%, the residual activity (EPHA4 (human)) was 94.5% and the residual activity (CDK2 CCNA2 (human)) was 96.1%. The residual activity (PRKD3 (human)) was 90%, the residual activity (SRPK2 (human)) was 104% and the residual activity (ACVR1B (human)) was 100%. The residual activity (CAMK1D (human)) was 91.5%, the residual activity (CSK (human)) was 93% and the residual activity (TAOK3 (human)) was 55.5%. For the same compound, the residual activity (AURKC (human)) was 70.9%, the residual activity (DYRK3 (human)) was 95.9% and the residual activity (CDK6 CCND1 (human)) was 96.5%. For the same compound, the residual activity (PBK (human)) was 101%, the residual activity (MAP3K14 (human)) was 104% and the residual activity (MAP3K5 (human)) was 102%. It also gave a residual activity (MAP4K2 (human)) of 72.5%, a residual activity (LCK (human)) of 43.3% and a residual activity (PRKACG (human)) of 111%. It also gave a residual activity (SLK (human)) of 84.9%, a residual activity [1] of 94% and a residual activity (NEK11 (human)) of 94.8%. For the same compound, the residual activity (INSR (human)) was 107%, the residual activity (STK10 (human)) was 50.1% and the residual activity (PRKD1 (human)) was 96.9%. The residual activity (PDGFRB (human)) was 40.4%, the residual activity (ROCK1 (human)) was 100% and the residual activity (FER (human)) was 81.3%. It also gave a residual activity (PAK6 (human)) of 105%, a residual activity (CAMK2D (human)) of 99.4% and a residual activity (STK38 (human)) of 100%. The residual activity (AKT3 (human)) was 93.3%, the residual activity (MAP3K8 (human)) was 95.2% and the residual activity (CAMK2A (human)) was 95.6%. The residual activity (STK33 (human)) was 87.1%, the residual activity (CSNK2A1 (human)) was 114% and the residual activity (MAPK11 (human)) was 93.3%. For the same compound, the residual activity (AXL (human)) was 78.1% and the residual activity (RPS6KA3 KD1 KD2 (human)) was 99.1%.
